Assay results as given in patent US20180221435A1, “ITCH TREATMENT USING A COMBINATION OF NEUROKININ-1, GASTRIN RELEASING PEPTIDE, AND GLUTAMATE RECEPTOR ANTAGONISTS” (The Regents of the University of California, priority 2013, published 2018).
“Also recorded” adds a separate entry of the source.

Assays:
[1] = tested on: superficial dorsal horn neurons; test: In vivo single-unit recording, id histamine-evoked firing, spinal superfusion of antagonists; parameters: species or system mice
Experimental: Akiyama T et al., The Journal of neuroscience: the official journal of the Society for Neuroscience 29(20):6691-6699 (2009)]. Anesthesia was induced by sodium pentobarbital (60 mg/kg ip) and maintained by supplemental injections (10-20 mg/kg/hr). […] A tungsten microelectrode recorded single-unit activity in the lumbar spinal cord. A chemical search strategy [Akiyama T et al., Journal of neurophysiology 102(4):2176-2183 2009; […] Following mechanical stimulation, histamine (50 μg) was injected id within the same receptive field at a different location via a separate injection cannula. Following the id histamine injection, we tested the effects of antagonists for the receptors of NK1, GRP, or AMPA/kainate in the same manner as described above for chloroquine. […] Following the AITC application, we tested the effects of the NK-1 receptor antagonist, the AMPA/kainate receptor antagonist, or a combination of both antagonists in the same manner as described above for chloroquine. Action potentials were recorded to a computer and counted using Chart software (AD Instruments, Colorado Springs Colo.) and Spike2 software (CED Instruments). […] Mean peak responses elicited by noxious pinch were compared by one way repeated-measures ANOVA followed by post-hoc Bonferroni test, with p<0.05 set as significant. At the end of each experiment, an electrolytic lesion was made at the spinal cord recording site.

[2] = tested on: superficial dorsal horn neurons; test: In vivo single-unit recording, noxious pinch-evoked responses, spinal superfusion of antagonists; parameters: species or system mice; settings: pinch at end of 1 min superfusion
Experimental: Akiyama T et al., The Journal of neuroscience: the official journal of the Society for Neuroscience 29(20):6691-6699 (2009)]. Anesthesia was induced by sodium pentobarbital (60 mg/kg ip) and maintained by supplemental injections (10-20 mg/kg/hr). […] A tungsten microelectrode recorded single-unit activity in the lumbar spinal cord. A chemical search strategy [Akiyama T et al., Journal of neurophysiology 102(4):2176-2183 2009; […] Units were classified as wide dynamic range (WDR)-type if they responded in a graded manner to innocuous mechanical stimulation (brushing, cotton wisp) and noxious pinch, or nociceptive-specific (NS) if they responded to noxious pinch (and to the 55 mN von Frey stimulus) but not to the cotton wisp or brush stimuli. […] Akiyama T et al., The Journal of neuroscience: the official journal of the Society for Neuroscience 29(20):6691-6699 (2009)]. […] At the end of the antagonist superfusion, the noxious pinch stimulus was delivered again at the same site on the receptive field. Thirty minutes later, the noxious pinch stimulus was delivered in the same manner. Action potentials were recorded to a computer and counted using Chart software (AD Instruments, Colorado Springs Colo.) and Spike2 software (CED Instruments). […]

[3] = tested on: histamine-evoked scratching; test: Histamine-evoked scratching behavior after intrathecal antagonists; format: in vivo, mice; settings: intrathecal CNQX 20 nmol, 5 min before id histamine 271 nmol
Excerpt: The fur on the rostral back was shaved and mice were habituated to the Plexiglas recording arena one week prior to testing. For intrathecal injections, either vehicle (saline), the GRP receptor antagonist RC-3095 (0.3 nmol; Sigma-Aldrich, St. Louis Mo.), the NK-1 antagonist L-733060 (22.7 nmol; Tocris Bioscience, Minneapolis, Minn.), the AMPA/kainate antagonist CNQX (20 nmol; Tocris Bioscience), a combination of CNQX (20 nmol) and L-733060 (22.7 nmol), or a combination of RC-3095 (0.3 nmol), CNQX (20 nmol) and L-733060 (22.7 nmol), was administered by lumbar puncture, followed 5 minutes later by id injection (10 μl) of either chloroquine (193 nmol; Sigma-Aldrich) or histamine (271 nmol; Sigma-Aldrich). Microinjections were made id in the nape of the neck using a 30 G needle attached to a Hamilton microsyringe by PE-50 tubing. Immediately after the id injection the mouse was placed into the arena and videotaped from above for 30 min. Generally 3-4 mice were injected and videotaped simultaneously. Immediately after commencing videotaping all investigators left the room.
Videotapes were reviewed by investigators blinded to the treatment, and the number of scratch bouts was counted at 5-minute intervals. […] Hind paw movements directed away from the injection site (e.g., ear-scratching) and grooming movements were not counted. […]

For `N#Cc1cc2[nH]c(=O)c(=O)[nH]c2cc1[N+](=O)[O-]` [CNQX], the “histamine-evoked response of NS units” value ([1]; NS units, vs vehicle) was “significantly reduced”, the “histamine-evoked response of WDR units” value ([1]; WDR units, vs vehicle) was “significantly reduced” and the “histamine-evoked firing, effect of spinal superfusion” value ([1]; all units) was “significantly attenuated histamine-evoked firing to a level not different from that elicited by id injection of vehicle (saline); also recorded: almost completely abolished histamine-evoked firing”. The “noxious pinch-evoked response, effect of spinal superfusion” value [2] was “significantly reduced” and the “histamine-evoked scratching (scratch bouts/30 minutes)” value [3] was “significantly decreased; also recorded: significantly reduced; also recorded: prevented histamine-evoked scratching behavior”.
